Data on 2 compounds can be found in publication PMC5518096, “Use of a special Brazilian red-light emitting railroad worm Luciferase in bioassays of NEK7 protein Kinase and Creatine Kinase” (BMC Biochemistry, 2017).

Experiment in all cases: ATP consumption, coupled red luciferase luminescence
Common to all, as to type: biochemical

Test [1] concerns the target NEK7 (6xHis-NEK7) (Homo sapiens, UniProt Q8TDX7). The following applies: 1 uM ATP, protein substrates NEK9(764-976), MAT1 or CC2D1A(501-940), 4 mM MgSO4, pH 8, 37 °C.
The target of test [2] is T1, sMtCK (6xHis-sarcomeric creatine kinase, pUS01) (Homo sapiens, UniProt P17540).
T1 construct: gene CKMT2; 6xHis, pET3b plasmid pUS01 (Schlattner), E. coli BL21(DE3)
The following applies: 5 mM creatine, 50 uM ATP, 4 mM MgSO4, pH 8, 37 °C, 30 min.

Test [3] has as its target T2, uMtCK (6xHis-ubiquitous creatine kinase, pUS04) (Homo sapiens, UniProt P12532).
T2 construct: gene CKMT1A; 6xHis, pET3b plasmid pUS04 (Schlattner), E. coli BL21(DE3)
The following applies: 5 mM creatine, 50 uM ATP, 4 mM MgSO4, pH 8, 37 °C, 30 min.

NEK7 (6xHis-NEK7), sequence (Q8TDX7 whole entry): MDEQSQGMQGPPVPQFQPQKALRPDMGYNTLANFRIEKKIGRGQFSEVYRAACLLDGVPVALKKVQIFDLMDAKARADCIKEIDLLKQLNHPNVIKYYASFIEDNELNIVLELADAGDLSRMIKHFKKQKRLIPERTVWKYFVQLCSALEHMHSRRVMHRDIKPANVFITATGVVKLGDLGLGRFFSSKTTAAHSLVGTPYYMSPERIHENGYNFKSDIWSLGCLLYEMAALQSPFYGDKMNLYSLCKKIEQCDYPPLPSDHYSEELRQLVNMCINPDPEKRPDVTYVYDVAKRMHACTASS

`Nc1ncnc2c1ncn2[C@@H]1O[C@H](COP(=O)(O)OP(=O)(O)OP(=O)(O)O)[C@@H](O)[C@H]1O` [ATP]: the “ATP consumption, coupled red luciferase luminescence” value was “ATP consumption by NEK7, due to its phosphorylation of substrate proteins/domains” in test [1]; “ATP was consumed only in the presence of creatine kinase and creatine” in test [2]; “ATP was consumed only in the presence of creatine kinase and creatine” in test [3].

In the case of `CN(CC(=O)O)C(=N)N` [creatine], in test [2], the “ATP consumption, coupled red luciferase luminescence” value was “when creatine was added, the light emission was significantly decreased”.
